# Measurements: patent publication US20210284742A1, “METHODS OF TREATING OR PREVENTING MUCORMYCOSIS” (University of Maryland, Baltimore, priority 2018, published 2021)
# Key:
# [1] = system: A549 cells infected with R. delemar; experiment: R. delemar-induced A549 cell damage (Pierce LDH assay); format: cell-based, human; conditions: for R. delemar-induced damage of A549 alveolar epithelial cells (LDH assay): pre-treated 1 h, inhibitors present throughout, Inh III 10, AG1478 10 μM, AG825 50 μM, 24 h infection (FIG. 6)
# Description: Measurement of R. delemar-induced host cell damage. R. delemar-induced A549 cell damage was quantified using the Pierce LDH Assay with slight modifications to the manufacturer's protocol. Briefly, A549 cells were grown in 96-well tissue culture plates for 18-24 hours. […] For controls, host cells will be incubated with DMSO (the solvent used to reconstitute the inhibitor) or 25 μg/ml of mouse IgG antibody in parallel. After 24 hours of incubation at 37° C., 50 μl of the cell culture supernatant was collected from uninfected, infected, and fungi-only control wells and transferred to a 96 well plate to assay for LDH activity. Lysis buffer was added to all infected wells and incubated for 45 min at 37° C. After lysis, 50 μl of cell culture supernatant was transferred to a 96 well plate and used for the LDH Assay Kit per protocol. LDH release was calculated as follows: % Cytotoxicity=[Experimental release−Fungal Cells Spontaneous Control−Host Cells Spontaneous Control]/[Host Cell Maximum Control−Fungal Cells Maximum Control−Host Cells Spontaneous Control]×100. LDH is a cytosolic enzyme but will be released into the cell culture medium upon cell membrane damage. The amount of extracellular LDH is proportional to the amount of cell damage.
# (§1) R. delemar-induced A549 cell damage was quantified using the Pierce LDH assay, with slight modifications to the manufacturer's protocol. Briefly, A549 cells were grown in 96-well tissue culture plates for 18 to 24 h. Cells were then pretreated for 1 h with inhibitor and infected with 1×10^6-2×10^6 germlings suspended in 150 μl F-12K plus 10% FBS. For controls, host cells were incubated with the appropriate amount of diluent used to reconstitute the in parallel. After 24 h of incubation at 37° C., 50 μl of the cell culture supernatant was collected from uninfected, infected, and fungus-only control wells and transferred to a 96-well plate to assay for LDH activity. Lysis buffer was added to all infected wells, and the mixture was incubated for 45 min at 37° C. After lysis, 50 μl of cell culture supernatant was transferred to a 96-well plate and used for the LDH assay kit per the protocol. LDH release was calculated as follows: % cytotoxicity=[(experimental release−fungal cell spontaneous control−host cell spontaneous control)/(host cell maximum control−fungal cell maximum control−host cell spontaneous control)]×100. LDH is a cytosolic enzyme but will be released into the cell culture medium upon cell membrane damage. The amount of extracellular LDH is proportional to the amount of cell damage.
# [2] = system: A549 alveolar epithelial cells infected with R. delemar spores; experiment: Measurement of host cell endocytosis of R. delemar by A549 cells (Uvitex differential fluorescence); format: cell-based, human; conditions: for ability of A549 cells to endocytose R. delemar spores: Ahr inhibitor or Src inhibitor
# Description: Measurement of host cell endocytosis. 12-mm glass coverslips were seeded with A549 alveolar epithelial cells. […] For controls, host cells will be incubated with DMSO (the solvent used to reconstitute the inhibitor) or 25 μg/ml mouse IgG antibody in parallel. Host cells were then infected with 2×10^5 R. delemar spores. After incubation for 3 h, cells were fixed in 3% paraformaldehyde and stained for 1 h with 1% Uvitex, which specifically binds to chitin in the fungal cell wall. After washing with PBS, coverslips were mounted on a glass slide with a drop of ProLong Gold anti-fade reagent (Molecular Probes) and sealed. The total number of cell-associated organisms (i.e. fungi adhering to the monolayer) per high-powered field were determined by phase-contrast microscopy. The same field will be examined by epifluorescence microscopy, and the number of brightly fluorescent, uninternalized fungi were determined. The number of endocytosed organisms was calculated by subtracting the number of fluorescent fungi from the total number of visible fungi. At least 400 organisms were counted per treatment group in at least 15 different fields per coverslip. Experiments were performed in duplicate or triplicate on at least two separate days.
# 12-mm glass coverslips in 12 well dishes will be seeded with A549 alveolar epithelial cells. Cells were then pre-treated 1 h with inhibitors. For controls, host cells were incubated with the appropriate amount of diluent used to reconstitute the inhibitor in parallel. Host cells were then infected with 2×10^6 Rdelemar. After incubation for 3 h, cells were fixed in 3% paraformaldehyde and stained for 1 h with 1% Uvitex, which specifically binds to chitin in the fungal cell wall. After washing with PBS, coverslips were mounted on a glass slide with a drop of ProLong Gold anti-fade reagent (Molecular Probes) and sealed. The total number of cell-associated organisms (i.e., fungi adhering to the monolayer) per high-powered field was determined by phase-contrast microscopy. The same exact field was examined by epifluorescence microscopy, and the number of brightly fluorescent, uninternalized fungi will be determined. The number of endocytosed organisms is calculated by subtracting the number of fluorescent organisms from the total number of visible organisms. At least 400 organisms were counted in at least 15 different fields per coverslip. Experiments were performed in duplicate on separate days. Data will be expressed as median f interquartile range.
# [3] = system: HUVECs infected with R. delemar; conditions: inhibition of PDGFR phosphorylation; cited from earlier work
# R. delemar = experiment: Neutropenic mouse model of pulmonary mucormycosis, survival; format: in vivo, mice
# Description: Murine models of Mucormycosis. Male ICR mice (20-25 g from Envigo) were immunosuppresed by cyclophosphamide (200 mg/kg administered intraperotenually [i.p]) and cortisone acetate (500 mg/kg, adminstered subcutaneously) given on days −2, +3, and +9 relative to infection. […] To control for bacterial infection, immunosuppressed mice received 50 mg/L Baytrial (enrofloxacin: Bayer, Leverkusen, Germany) ad libitum on Day −3 thorough Day 0, after which Baytril was replaced with daily ceftazidime (5 mg/mouse) treatment adminstered subcutaneously through day+13 days post infection. Mice were infected with 2.5×10^5 spores of R. delemar 99-880 in 25 μL PBS given intratracheally as previously described (Luo G, Gebremariam T, Lee H, French S W, Wiederhold N P, Patterson T F, Filler S G, Ibrahim A S. 2013. Efficacy of liposomal amphotericin B and posaconazole in intratracheal models of murine mucormycosis. Antimicrobial agents and chemotherapy 57:3340-7). […] Placebo mice received DMA:PEG300. Survival of mice served as the primary endpoint with moribund mice humanely euthanized. To determine effect of treatment on tissue fungal burden mice were immunosuppressed and infected as above. Gefitinib treatment started 4 post infection and continued through Day +3. On Day +4, mice were sacrificed and lungs and brains, representing primary and secondary target organs (Luo G, Gebremariam T, Lee H, French S W, Wiederhold N P, Patterson T F, Filler S G, Ibrahim A S. 2013. Efficacy of liposomal amphotericin B and posaconazole in intratracheal models of murine mucormycosis. Antimicrobial agents and chemotherapy 57:3340-7), were collected and processed for tissue fungal burden by qPCR (Ibrahim A S, Bowman J C, Avanessian V, Brown K, Spellberg B, Edwards J E, Jr., Douglas C M. 2005. Caspofungin inhibits Rhizopus oryzae 1,3-beta-D-glucan synthase, lowers burden in brain measured by quantitative PCR, and improves survival at a low but not a high dose during murine disseminated zygomycosis. Antimicrobial agents and chemotherapy 49:721-7.) Values are expressed as Log10 spore equivalents per gram tissue.
# Statistical Analyses. In vitro experiments were performed in triplicate on two or three separate days. Data were expressed as median±interquartile range. Treatment groups were compared to controls using the Wilcoxon rank-sum test and P values <0.05 were considered significant. For the murine studies, survival of mice was analyzed using the Log Rank test, whereas differences in tissue fungal burden were analyzed by the Wilcoxon Rank Sum test using Graph pad Prism 6. P values of <0.05 were considered significant.
# [4] = system: A549 cells infected with R. oryzae; experiment: R. oryzae-induced damage of A549 cells (LDH assay); format: cell-based, human; conditions: 25 μM Mifepristone overnight and/or 25 μM Gefitinib 1 h, 24 h infection (FIG. 14)
# Description: as §1, with “Cells were then pretreated for 1 h with inhibitor and infected with 1×10^6-2×10^6 germlings suspended in 150 μl F-12K plus 10% FBS.” left out
# [5] = system: A549 cells infected with C. bertholletiae; experiment: C. bertholletiae-induced damage of A549 cells (LDH assay); format: cell-based, human; conditions: 25 μM Mifepristone overnight and/or 25 μM Gefitinib 1 h, 24 h infection (FIG. 14)
# [6] = system: A549 cells infected with L. corymbifera; experiment: L. corymbifera-induced damage of A549 cells (LDH assay); format: cell-based, human; conditions: 25 μM Mifepristone overnight and/or 25 μM Gefitinib 1 h, 24 h infection (FIG. 14)
# [7] = system: A549 cells infected with M. circinelloides; experiment: M. circinelloides-induced damage of A549 cells (LDH assay); format: cell-based, human; conditions: 25 μM Mifepristone overnight and/or 25 μM Gefitinib 1 h, 24 h infection (FIG. 14)
compound,measurement,setting,value
COc1cc2ncnc(Nc3cccc(Cl)c3)c2cc1OC [AG1478],R. delemar-induced damage of A549 alveolar epithelial cells (LDH assay),[1],greater reduction in damage
Cc1ccccc1N=Nc1ccc(NC(=O)c2ccnn2C)c(C)c1 [CH-223191],ability of A549 cells to endocytose R. delemar spores,[2],Neither of the inhibitors altered
COc1cc2ncnc(N3CCN(C(=O)Nc4ccc(Oc5ccccc5)cc4)CC3)c2cc1OC [PDGFR tyrosine kinase inhibitor III],R. delemar-induced damage of A549 alveolar epithelial cells (LDH assay),[1],modestly but significantly reduces
same,R. delemar-induced damage of HUVECs,[3],significantly reduces
CC[C@@H]([C@H](C)O)n1ncn(-c2ccc(N3CCN(c4ccc(OC[C@@H]5CO[C@@](Cn6cncn6)(c6ccc(F)cc6F)C5)cc4)CC3)cc2)c1=O [posaconazole],18-day survival,"R. delemar; delayed treatment beginning 30 h post infection for 6 consecutive days, 10 mg/kg gefitinib, 20 mg/kg posaconazole or both",0%
same,"protection from pulmonary mucormycosis, delayed administration","R. delemar; treatment delayed for 30 h post infection, administered alone",did not
CC#C[C@]1(O)CC[C@H]2[C@@H]3CCC4=CC(=O)CCC4=C3[C@@H](c3ccc(N(C)C)cc3)C[C@@]21C [Mifepristone],R. oryzae-induced damage,[4],a significant decrease in damage was not seen
same,R. delemar-induced damage of alveolar epithelial cells (LDH assay),"[1]; Example 3, Mifepristone 25 / Gefitinib 25, 24 h infection, vs vehicle (FIG. 12)",decrease
same,C. bertholletiae-induced damage,[5],a significant decrease in damage was not seen
same,L. corymbifera-induced damage,[6],significantly decreased
same,R. delemar invasion / endocytosis,"[2]; Example 3, 25 μM Mifepristone overnight and/or 25 μM Gefitinib 1 h, 3 h infection (FIG. 13)",reduction
same,M. circinelloides-induced damage,[7],a significant decrease in damage was not seen
Src Kinase Inhibitor I I,ability of A549 cells to endocytose R. delemar spores,[2],Neither of the inhibitors altered
COc1cc(/C=C(\C#N)C(N)=O)cc(CSc2nc3ccccc3s2)c1O [AG825],R. delemar-induced damage of A549 alveolar epithelial cells (LDH assay),[1],greater reduction in damage
"EGF [epidermal growth factor, EGFR ligand]",R. delemar-induced damage with EGF addition (LDH assay),[1]; A549 cells pretreated (and cotreated) with EGF 1 h prior to 24 h infection (FIG. 15),no increase in damage was observed
